The values that follow are results of earlier work, collected in patent publication US10174388B2, “Method for selection of agents influencing intestinal motility disorders and pain” (BioGaia AB, priority 2012, dated 2019).

Read-outs that look alike come from different tables or passages of the source.

The conditions of this data set: baseline 197 minutes in both groups.

Regarding simethicone, the “median daily crying time” value (day 7) was 177 min and the “median daily crying time” value (day 28) was 145 min.
